Experimental data taken from US10519134B2, “Pyrazole compounds and methods of making and using same” (Lundbeck La Jolla Research Center, Inc., priority 2015, dated 2019).
pIC50: −log10 of the molar value.

How the values were obtained:
MAGL = biological target: T1, MAGL (Mus musculus, UniProt O35678); experiment: In vitro competitive activity-based protein profiling (mouse), MAGL gel band; format: biochemical; conditions: for inhibition at 1 µM: read-out: MAGL % inh. 1 μM; for pIC50: mouse
T1 construct: Proteomes (mouse brain membrane fraction or cell lysates); from tissue; host or cells: mouse brain membrane fraction (or cell lysates)
T1 sequence (O35678 1-303): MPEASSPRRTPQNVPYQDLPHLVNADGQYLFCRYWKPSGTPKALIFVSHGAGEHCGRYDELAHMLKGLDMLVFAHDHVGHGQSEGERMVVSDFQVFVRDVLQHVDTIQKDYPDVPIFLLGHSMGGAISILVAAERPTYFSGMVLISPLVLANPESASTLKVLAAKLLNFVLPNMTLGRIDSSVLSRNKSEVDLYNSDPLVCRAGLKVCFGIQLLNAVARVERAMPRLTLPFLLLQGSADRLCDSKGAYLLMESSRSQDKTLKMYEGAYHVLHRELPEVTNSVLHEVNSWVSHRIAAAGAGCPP
Procedure, shortened: (§1)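 Mouse brain membrane proteome or cell lysate (1.0 mg/mL protein) preincubated 30 min at 37 °C with varying inhibitor concentrations, then labelled 30 min at 37 °C with FP-Rh or HT-01 probe (50 μM stock). After SDS-PAGE, activity taken from fluorescent intensity of the MAGL and FAAH gel bands.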

FAAH = biological target: T2, FAAH (Mus musculus, UniProt O08914); experiment: In vitro competitive activity-based protein profiling (mouse), FAAH gel band; format: biochemical; conditions: for inhibition at 1 µM: read-out: FAAH % inh. 1 μM; for pIC50: mouse
T2 construct: Proteomes (mouse brain membrane fraction or cell lysates); from tissue; host or cells: mouse brain membrane fraction (or cell lysates)
T2 sequence (O08914 1-579): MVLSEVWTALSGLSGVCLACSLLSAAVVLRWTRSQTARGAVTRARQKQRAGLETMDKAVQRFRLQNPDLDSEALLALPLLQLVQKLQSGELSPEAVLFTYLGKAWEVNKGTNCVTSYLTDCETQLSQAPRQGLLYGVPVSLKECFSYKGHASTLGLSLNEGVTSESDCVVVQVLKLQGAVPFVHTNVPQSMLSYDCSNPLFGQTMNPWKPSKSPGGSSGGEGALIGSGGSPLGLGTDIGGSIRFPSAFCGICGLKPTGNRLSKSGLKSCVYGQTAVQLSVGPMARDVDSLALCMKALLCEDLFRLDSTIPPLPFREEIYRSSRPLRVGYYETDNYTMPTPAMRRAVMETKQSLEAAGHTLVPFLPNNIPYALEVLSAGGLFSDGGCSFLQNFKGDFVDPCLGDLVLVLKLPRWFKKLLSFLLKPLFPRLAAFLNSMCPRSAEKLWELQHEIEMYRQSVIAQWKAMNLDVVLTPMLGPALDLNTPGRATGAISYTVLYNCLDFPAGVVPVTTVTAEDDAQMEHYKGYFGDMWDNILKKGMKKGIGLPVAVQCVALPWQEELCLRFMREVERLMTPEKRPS
Procedure, shortened: as §1

SMILES	inhibition at 1 µM (MAGL) [%]	inhibition at 1 µM (FAAH) [%]	pIC50 (MAGL)	pIC50 (FAAH)
CS(=O)(=O)Nc1ccn(C(=O)N2CCC3(CCCN3Cc3ccc(C(F)(F)F)cc3N3CCN(C4CC4)CC3)CC2)n1 [Example 239, N-(1-(1-(2-(4-cyclopropylpiperazin-1-yl)-4-(trifluoromethyl)benzyl)-1,8-diazaspiro[4.5]decane-8-carbonyl)-1H-pyrazol-3-yl) methanesulfonamide]	0 to 25	0 to 25		
CS(=O)(=O)Nc1ccn(C(=O)N2CCN(Cc3ccc(C(F)(F)F)cc3N3CCN(CC(=O)O)CC3)CC2)n1 [Example 241, 2-(4-(2-((4-(3-(methylsulfonamido)-1H-pyrazole-1-carbonyl)piperazin-1-yl)methyl)-5-(trifluoromethyl)phenyl)piperazin-1-yl)acetic acid]	50 to 75	0 to 25		
CS(=O)(=O)Nc1ccn(C(=O)N2CCN(Cc3cc(N4CCC(C(=O)O)CC4)cc(C(F)(F)F)c3)CC2)n1 [Example 242, 1-(3-((4-(3-(methylsulfonamido)-1H-pyrazole-1-carbonyl)piperazin-1-yl)methyl)-5-(trifluoromethyl)phenyl)piperidine-4-carboxylic acid]	0 to 25	0 to 25		
CS(=O)(=O)Nc1ccn(C(=O)N2CCC3(CCCN3Cc3ccc(C(F)(F)F)cc3N3CCC(C(=O)O)CC3)CC2)n1 [Example 243, 1-(2-((8-(3-(methylsulfonamido)-1H-pyrazole-1-carbonyl)-1,8-diazaspiro[4.5]decan-1-yl)methyl)-5-(trifluoromethyl)phenyl)piperidine-4-carboxylic acid]	0 to 25	0 to 25		
CS(=O)(=O)Nc1ccn(C(=O)N2CCN(Cc3cc(N4CCC(C(=O)O)C4)cc(C(F)(F)F)c3)CC2)n1 (stereo not drawn) [Example 244, 1-(3-((4-(3-(methylsulfonamido)-1H-pyrazole-1-carbonyl)piperazin-1-yl)methyl)-5-(trifluoromethyl)phenyl)pyrrolidine-3-carboxylic acid]	0 to 25	0 to 25		
CS(=O)(=O)Nc1ccn(C(=O)N2CCC3(CCCN3Cc3ccc(C(F)(F)F)cc3N3CCC(C(=O)O)C3)CC2)n1 (stereo not drawn) [Example 245, 1-(2-((8-(3-(methylsulfonamido)-1H-pyrazole-1-carbonyl)-1,8-diazaspiro[4.5]decan-1-yl)methyl)-5-(trifluoromethyl)phenyl) pyrrolidine-3-carboxylic acid]	0 to 25	0 to 25		
CS(=O)(=O)Nc1ccn(C(=O)N2CCC3(CCCN3Cc3cc(N4CCC(C(=O)O)CC4)cc(C(F)(F)F)c3)CC2)n1 [Example 246, 1-(3-((8-(3-(methylsulfonamido)-1H-pyrazole-1-carbonyl)-1,8-diazaspiro[4.5]decan-1-yl)methyl)-5-(trifluoromethyl)phenyl) piperidine-4-carboxylic acid]	0 to 25	0 to 25		
CS(=O)(=O)Nc1ccn(C(=O)N2CCC3(CCCN3Cc3cc(N4CCC(C(=O)O)C4)cc(C(F)(F)F)c3)CC2)n1 (stereo not drawn) [Example 247, 1-(3-((8-(3-(methylsulfonamido)-1H-pyrazole-1-carbonyl)-1,8-diazaspiro[4.5]decan-1-yl)methyl)-5-(trifluoromethyl)phenyl)pyrrolidine-3-carboxylic acid]	0 to 25	0 to 25		
CS(=O)(=O)Nc1ccn(C(=O)N2CCN(Cc3ccc(Cl)c(N4CCC(C(N)=O)CC4)c3)CC2)n1 [Example 249, 1-(2-chloro-5-((4-(3-(methylsulfonamido)-1H-pyrazole-1-carbonyl)piperazin-1-yl)methyl)phenyl) piperidine-4-carboxamide]	0 to 25	0 to 25		
CC(=O)N1CCN(c2cc(CN3CCN(C(=O)n4ccc(NS(C)(=O)=O)n4)CC3)cc(C(F)(F)F)c2)CC1 [Example 251, N-(1-(4-(3-(4-acetylpiperazin-1-yl)-5-(trifluoromethyl)benzyl)piperazine-1-carbonyl)-1H-pyrazol-3-yl) methanesulfonamide]	25 to 50	0 to 25		
CS(=O)(=O)Nc1ccn(C(=O)N2CCN(Cc3ccc(C(F)(F)F)cc3N3CCC(O)CC3)CC2)n1 [Example 252, N-(1-(4-(2-(4-hydroxypiperidin-1-yl)-4-(trifluoromethyl)benzyl)piperazine-1-carbonyl)-1H-pyrazol-3-yl) methanesulfonamide]	≥ 75	0 to 25	≥ 7.00	5.00 to 6.00
CC(=O)Nc1ccn(C(=O)N2CCC3(CCCN3Cc3ccc4[nH]cnc4c3)CC2)n1 [Example 253, N-(1-(1-((1H-benzo[d]imidazol-5-yl)methyl)-1,8-diazaspiro[4.5]decane-8-carbonyl)-1H-pyrazol-3-yl)acetamide]	50 to 75	0 to 25		

Results, then the compound that gave them:

inhibition at 1 µM (MAGL) [%]	inhibition at 1 µM (FAAH) [%]	pIC50 (MAGL)	pIC50 (FAAH)	SMILES
25 to 50	0 to 25			CS(=O)(=O)Nc1ccn(C(=O)N2CCN(Cc3cc(N4CCN(S(C)(=O)=O)CC4)cc(C(F)(F)F)c3)CC2)n1 [Example 254, N-(1-(4-(3-(4-(methylsulfonyl)piperazin-1-yl)-5-(trifluoromethyl)benzyl)piperazine-1-carbonyl)-1H-pyrazol-3-yl) methanesulfonamide]
0 to 25	0 to 25			CS(=O)(=O)Nc1ccn(C(=O)N2CCC3(CCCN3Cc3ccc(C(F)(F)F)cc3N3CCN(S(C)(=O)=O)CC3)CC2)n1 [Example 255, N-(1-(1-(2-(4-(methylsulfonyl)piperazin-1-yl)-4-(trifluoromethyl)benzyl)-1,8-diazaspiro[4.5]decane-8-carbonyl)-1H-pyrazol-3-yl) methanesulfonamide]
≥ 75	0 to 25	≥ 7.00	5.00 to 6.00	CS(=O)(=O)Nc1ccn(C(=O)N2CCN(Cc3ccc(Cl)cc3N3CC4CCC(C3)O4)CC2)n1 [Example 256, N-(1-(4-(2-(8-oxa-3-azabicyclo[3.2.1]octan-3-yl)-4-chlorobenzyl)piperazine-1-carbonyl)-1H-pyrazol-3-yl) methanesulfonamide]
0 to 25	0 to 25			CS(=O)(=O)Nc1ccn(C(=O)N2CCN(Cc3cc(N4CCOCC4)ccc3Cl)CC2)n1 [Example 258, N-(1-(4-(2-chloro-5-morpholinobenzyl)piperazine-1-carbonyl)-1H-pyrazol-3-yl) methanesulfonamide]
50 to 75	0 to 25			CS(=O)(=O)Nc1ccn(C(=O)N2CCN(Cc3ccc(C(F)(F)F)cc3-c3nnn[nH]3)CC2)n1 [Example 259, N-(1-(4-(2-(1H-tetrazol-5-yl)-4-(trifluoromethyl)benzyl)piperazine-1-carbonyl)-1H-pyrazol-3-yl) methanesulfonamide]
≥ 75	0 to 25			CS(=O)(=O)Nc1ccn(C(=O)N2CCN(Cc3ccc(Cl)c(-c4nnco4)c3)CC2)n1 [Example 260, N-(1-(4-(4-chloro-3-(1,3,4-oxadiazol-2-yl)benzyl)piperazine-1-carbonyl)-1H-pyrazol-3-yl) methanesulfonamide]
≥ 75	0 to 25			CS(=O)(=O)Nc1ccn(C(=O)N2CCN(Cc3ccc(Cl)c(-c4ncon4)c3)CC2)n1 [Example 261, N-(1-(4-(4-chloro-3-(1,2,4-oxadiazol-3-yl)benzyl)piperazine-1-carbonyl)-1H-pyrazol-3-yl) methanesulfonamide]
